# Source: patent US10174015B2, “Substituted heterocyclic derivative, preparation method and use thereof” (Xiamen University, priority 2014, dated 2019)
# Like-named read-outs stand apart in the source and are kept apart here.
# Key:
# zebrafish embryos [1] = type: in vivo; conditions: for Death number (72 h): n = 30; for Body length (72 h) / Hatching number (72 h) / Heartbeat (72 h) / Unhatching number (72 h) / hatching rate: zebrafish, in vivo, 72 h
# Protocol: Fertilized eggs (donated by Zebrafish Research Group, School of Life Sciences, Xiamen University) were incubated in freshly prepared zebrafish embryo culture medium, which was replaced by fresh culture medium every day, and cultured in 28.5° C. incubator. Pure water was placed in the incubator to ensure a certain humidity in the culture environment. The formulation for zebrafish embryo culture medium was following: 5 mM NaCl, 0.17 mM KCl, 0.33 mM CaCl2, 0.33 mM MgSO4, 10-5% methylene blue. The culture medium was prepared with pure water. For example, NaCl: 292.2 mg, KCl: 12.68 mg, CaCl2: 36.63 mg, MgSO4: 39.72 mg, and methylene blue: 0.1 μL were needed for the preparation of 1 L culture medium.
# 7 Groups were set for each test compound, including 5 experimental groups relating to the test compound at different concentrations (solutions containing the test compound at different concentrations were prepared by using zebrafish embryo culture medium, wherein the concentrations were 10 mg/L, 3 mg/L, 1 mg/L, 0.3 mg/L, 0.1 mg/L), 1 solvent control group (DMSO) and 1 blank control group. The positive control drug was OTC analgesic ibuprofen at concentrations as described above. A 96-well cell culture plate was used to perform the experiment, three wells in parallel were used for each experimental group, and 10 fish eggs were contained in each well.
# Culture medium containing a test compound was prepared, and the culture medium was added to a 96-well plate in advance, and each fertilized egg (by reference to the experimental method in OECD No. 212 document, fertilized eggs, which developed normally within 2 h after fertilization, were selected and subjected to exposure. Transparent fish eggs visible to naked eye were normally fertilized, while white fish eggs were dead and discarded. After the selection, the normally fertilized eggs had begun to divide as observed under microscope) was then independently placed in a different well, and cultured in the culture medium containing a test compound at a different concentration. Embryo development status at different stages was observed and photographed with invert microscope, including: […]
# II. Hatching number and death number were counted at 72 h after fertilization, and hatching rate and mortality were calculated; […]
# (§1) V. Heartbeat of young fishes (times/min) was recorded at 72 h and 96 h after fertilization (Recording method: heartbeat of young fishes could be clearly observed under microscope, and the number of heartbeats was recorded for 30 s).
# zebrafish embryos [2] = type: in vivo; conditions: for Death number (72 h): n = 30; for observation of zebrafish embryo development: 48 h; for Body length (72 h) / Hatching number (72 h) / Heartbeat (72 h) / Unhatching number (72 h) / hatching rate: zebrafish, in vivo, 72 h
# Protocol: By the same method described above, zebrafish fertilized eggs were cultured. 7 Groups were set for each test compound, including 5 experimental groups relating to the test compound at different concentrations (solutions containing the test compound at different concentrations were prepared by using zebrafish embryo culture medium, wherein the concentrations were 100 mg/L, 10 mg/L, 1 mg/L, 0.1 mg/L, 0.01 mg/L), 1 solvent control group (DMSO) and 1 blank control group. The fertilized eggs were placed and cultured in a 28.5° C. incubator, a certain humidity was ensured in the culture environment. Culture medium containing a test compound was prepared, and the culture medium was added to a 96-well plate in advance, and each fertilized egg (by reference to the experimental method in OECD No. 212 document, fertilized eggs, which developed normally within 24 h after fertilization, were selected and subjected to exposure. Transparent fish eggs visible to naked eye were normally fertilized, while white fish eggs were dead and discarded. After the selection, the normally fertilized eggs had begun to divide as observed under microscope) was then independently placed in a different well, and cultured in the culture medium containing a test compound at a different concentration. Embryo development status at different stages were observed and photographed with invert microscope, including:
# I. Morphological observation: the developmental states of fertilized eggs (yolk being coagulated or not, eye spot, pericardial sac being edematous or not, bloodstream being existing or not, tail development status, and the like) were observed and photographed at 48 h, 72 h, and 96 h;
# II. Hatching number and death number were counted at 72 h after fertilization, and hatching rate and mortality were calculated;
# III. Body length of the hatched young fishes at 72 h was measured (measured after photographing with invert microscope); […]
# as §1
compound,measurement,setting,value
"O=C(CCCCCc1cccc(Cl)c1)N1CCOC1=O [Compound 9, 3-Chlorophenylhexanoyl Oxazolidinone]",Death number (72 h),zebrafish embryos [1]; 0.1 mg/L,2
same,Death number (72 h),zebrafish embryos [1]; 0.3 mg/L,2
same,Death number (72 h),zebrafish embryos [1]; 1 mg/L,3
same,Death number (72 h),zebrafish embryos [1]; 3 mg/L,30
same,Death number (72 h),zebrafish embryos [1]; 10 mg/L,30
same,Body length (72 h),zebrafish embryos [1]; 0.1 mg/L,3.90 ± 0.05 mm
same,Hatching number (72 h),zebrafish embryos [1]; 0.1 mg/L,28
same,Heartbeat (72 h),zebrafish embryos [1]; 0.1 mg/L,129 ± 2.73 per min
same,Unhatching number (72 h),zebrafish embryos [1]; 0.1 mg/L,0
same,Body length (72 h),zebrafish embryos [1]; 0.3 mg/L,3.86 ± 0.03 mm
same,Hatching number (72 h),zebrafish embryos [1]; 0.3 mg/L,28
same,Heartbeat (72 h),zebrafish embryos [1]; 0.3 mg/L,130 ± 3.22 per min
same,Unhatching number (72 h),zebrafish embryos [1]; 0.3 mg/L,0
same,Body length (72 h),zebrafish embryos [1]; 1 mg/L,3.88 ± 0.04 mm
same,Hatching number (72 h),zebrafish embryos [1]; 1 mg/L,27
same,Heartbeat (72 h),zebrafish embryos [1]; 1 mg/L,130 ± 2.76 per min
same,Unhatching number (72 h),zebrafish embryos [1]; 1 mg/L,0
same,hatching rate,zebrafish embryos [1]; 1 mg/L,90%
same,Hatching number (72 h),zebrafish embryos [1]; 3 mg/L,0
same,Unhatching number (72 h),zebrafish embryos [1]; 3 mg/L,0
same,Hatching number (72 h),zebrafish embryos [1]; 10 mg/L,0
same,Unhatching number (72 h),zebrafish embryos [1]; 10 mg/L,0
same,Death number (72 h),zebrafish embryos [2]; 0.01 mg/L,0
same,Death number (72 h),zebrafish embryos [2]; 0.1 mg/L,0
same,Death number (72 h),zebrafish embryos [2]; 1 mg/L,0
same,Death number (72 h),zebrafish embryos [2]; 10 mg/L,0
same,observation of zebrafish embryo development,zebrafish embryos [2]; 100 mg/L,"no zebrafish embryos died, but phenomena such as pericardial cyst, no heartbeat, no bloodstream, no tail development and the like occurred in embryos"
same,Death number (72 h),zebrafish embryos [2]; 100 mg/L,30
same,Body length (72 h),zebrafish embryos [2]; 0.01 mg/L,4.01 ± 0.24 mm
same,Hatching number (72 h),zebrafish embryos [2]; 0.01 mg/L,30
same,Heartbeat (72 h),zebrafish embryos [2]; 0.01 mg/L,124 ± 0.27 per min
same,Unhatching number (72 h),zebrafish embryos [2]; 0.01 mg/L,0
same,Body length (72 h),zebrafish embryos [2]; 0.1 mg/L,4.03 ± 0.62 mm
same,Hatching number (72 h),zebrafish embryos [2]; 0.1 mg/L,30
same,Heartbeat (72 h),zebrafish embryos [2]; 0.1 mg/L,124 ± 1.17 per min
same,Unhatching number (72 h),zebrafish embryos [2]; 0.1 mg/L,0
same,Body length (72 h),zebrafish embryos [2]; 1 mg/L,4.01 ± 0.26 mm
same,Hatching number (72 h),zebrafish embryos [2]; 1 mg/L,30
same,Heartbeat (72 h),zebrafish embryos [2]; 1 mg/L,124 ± 1.08 per min
same,Unhatching number (72 h),zebrafish embryos [2]; 1 mg/L,0
same,Body length (72 h),zebrafish embryos [2]; 10 mg/L,3.82 ± 0.44 mm
same,Hatching number (72 h),zebrafish embryos [2]; 10 mg/L,28
same,Heartbeat (72 h),zebrafish embryos [2]; 10 mg/L,117 ± 2.24 per min
same,Unhatching number (72 h),zebrafish embryos [2]; 10 mg/L,2
same,hatching rate,zebrafish embryos [2]; 10 mg/L,93.3%
same,Hatching number (72 h),zebrafish embryos [2]; 100 mg/L,0
same,Unhatching number (72 h),zebrafish embryos [2]; 100 mg/L,30
"O=C(CCCCCc1ccccc1)N1CCOC1=O [Compound 2, Phenylhexanoyl Oxazolidinone]",Death number (72 h),zebrafish embryos [1]; 0.1 mg/L,3
same,Death number (72 h),zebrafish embryos [1]; 0.3 mg/L,2
same,Death number (72 h),zebrafish embryos [1]; 1 mg/L,1
same,Death number (72 h),zebrafish embryos [1]; 3 mg/L,30
same,Death number (72 h),zebrafish embryos [1]; 10 mg/L,30
same,Body length (72 h),zebrafish embryos [1]; 0.1 mg/L,3.86 ± 0.05 mm
same,Hatching number (72 h),zebrafish embryos [1]; 0.1 mg/L,27
same,Heartbeat (72 h),zebrafish embryos [1]; 0.1 mg/L,130 ± 3.00 per min
same,Unhatching number (72 h),zebrafish embryos [1]; 0.1 mg/L,0
same,Body length (72 h),zebrafish embryos [1]; 0.3 mg/L,3.87 ± 0.05 mm
same,Hatching number (72 h),zebrafish embryos [1]; 0.3 mg/L,28
same,Heartbeat (72 h),zebrafish embryos [1]; 0.3 mg/L,130 ± 3.58 per min
same,Unhatching number (72 h),zebrafish embryos [1]; 0.3 mg/L,0
same,Body length (72 h),zebrafish embryos [1]; 1 mg/L,3.85 ± 0.06 mm
same,Hatching number (72 h),zebrafish embryos [1]; 1 mg/L,29
same,Heartbeat (72 h),zebrafish embryos [1]; 1 mg/L,128 ± 3.29 per min
same,Unhatching number (72 h),zebrafish embryos [1]; 1 mg/L,0
same,hatching rate,zebrafish embryos [1]; 1 mg/L,96.67%
same,Hatching number (72 h),zebrafish embryos [1]; 3 mg/L,0
same,Unhatching number (72 h),zebrafish embryos [1]; 3 mg/L,0
same,Hatching number (72 h),zebrafish embryos [1]; 10 mg/L,0
same,Unhatching number (72 h),zebrafish embryos [1]; 10 mg/L,0
same,Death number (72 h),zebrafish embryos [2]; 0.01 mg/L,0
same,Death number (72 h),zebrafish embryos [2]; 0.1 mg/L,0
same,Death number (72 h),zebrafish embryos [2]; 1 mg/L,0
same,Death number (72 h),zebrafish embryos [2]; 10 mg/L,0
same,observation of zebrafish embryo development,zebrafish embryos [2]; 100 mg/L,"no zebrafish embryos died, but phenomena such as pericardial cyst, no heartbeat, no bloodstream, no tail development and the like occurred in embryos"
same,Death number (72 h),zebrafish embryos [2]; 100 mg/L,30
same,Body length (72 h),zebrafish embryos [2]; 0.01 mg/L,3.90 ± 0.93 mm
same,Hatching number (72 h),zebrafish embryos [2]; 0.01 mg/L,30
same,Heartbeat (72 h),zebrafish embryos [2]; 0.01 mg/L,124 ± 1.67 per min
same,Unhatching number (72 h),zebrafish embryos [2]; 0.01 mg/L,0
same,Body length (72 h),zebrafish embryos [2]; 0.1 mg/L,4.08 ± 0.09 mm
same,Hatching number (72 h),zebrafish embryos [2]; 0.1 mg/L,30
same,Heartbeat (72 h),zebrafish embryos [2]; 0.1 mg/L,123 ± 2.45 per min
same,Unhatching number (72 h),zebrafish embryos [2]; 0.1 mg/L,0
same,Body length (72 h),zebrafish embryos [2]; 1 mg/L,3.92 ± 0.10 mm
same,Hatching number (72 h),zebrafish embryos [2]; 1 mg/L,30
same,Heartbeat (72 h),zebrafish embryos [2]; 1 mg/L,123 ± 3.03 per min
same,Unhatching number (72 h),zebrafish embryos [2]; 1 mg/L,0
same,Body length (72 h),zebrafish embryos [2]; 10 mg/L,3.78 ± 0.05 mm
same,Hatching number (72 h),zebrafish embryos [2]; 10 mg/L,28
same,Heartbeat (72 h),zebrafish embryos [2]; 10 mg/L,117 ± 3.90 per min
same,Unhatching number (72 h),zebrafish embryos [2]; 10 mg/L,2
same,hatching rate,zebrafish embryos [2]; 10 mg/L,93.3%
same,Hatching number (72 h),zebrafish embryos [2]; 100 mg/L,0
same,Unhatching number (72 h),zebrafish embryos [2]; 100 mg/L,30
